In EP2951180B1, “2,6,7,8 SUBSTITUTED PURINES AS HDM2 INHIBITORS” (Merck Sharp & Dohme Corp., priority 2013, dated 2014):

Each compound was assayed against T1, HDM2 (Homo sapiens, UniProt Q00987) (assay: HDM2 FRET assay (inhibition of binding of FITC labeled p53-pocket peptide to HDM2)). Details: Table 9; read-out: FRET IC50.
T1 construct: Thioredoxin (N); made in house; host or cells: E. coli strain BL21(DE3)Rosetta
Procedure, shortened: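 Compounds were tested in 10-point serial dilution against 0.5 nM recombinant HDM2 binding 3 nM fluorescein-labeled p53-pocket peptide. Detection used 0.25 nM terbium cryptate anti-6xHis antibody in PBS buffer containing 0.01% BSA and 0.01% Tween-20.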

T1 sequence (Q00987 17-125): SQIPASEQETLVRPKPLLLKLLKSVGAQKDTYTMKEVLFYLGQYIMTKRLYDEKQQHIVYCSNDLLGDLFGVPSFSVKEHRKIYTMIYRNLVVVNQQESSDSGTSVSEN

In order of falling IC50:
1. C[C@@H](Nc1ncnc2nc(N[C@@H](CO)c3ccccc3)n(Cc3ccc(C(F)(F)F)cc3)c12)C1CCC1 [Example 9.29]  4470 nM
2. C[C@@H](Nc1nc(C(=O)O)nc2nc(NC(=O)c3ccccc3)n(Cc3ccc(C(F)(F)F)cc3)c12)C1CCC1 [Example 9.38]  657 nM
3. C[C@@H](Nc1nc(C(=O)O)nc2nc(NC(=O)C3CCCCC3)n(Cc3ccc(C(F)(F)F)cc3)c12)C1CCC1 [Example 9.43, 6-{[(1R)-1-cyclobutylethyl]amino}-8-[(cyclohexylcarbonyl)amino]-7-[4-(trifluoromethyl)benzyl]-7H-purine-2-carboxylic acid]  343 nM
4. CC(C)CC(=O)Nc1nc2nc(C(=O)O)nc(N[C@H](C)C3CCC3)c2n1Cc1ccc(C(F)(F)F)cc1 [Example 9.42, 6-{[(1R)-1-cyclobutylethyl]amino}-8-[(3-methylbutanoyl)amino]-7-[4-(trifluoromethyl)benzyl]-7H-purine-2-carboxylic acid]  324 nM
5. C[C@@H](Nc1nc(C(=O)O)nc2nc(N3CCOC[C@@H]3C)n(Cc3ccc(Cl)cc3)c12)C1CC1 [Example 9.28, 7-(4-chlorobenzyl)-6-{[(1R)-1-cyclopropylethyl]amino}-8-[(3S)-3-methylmorpholin-4-yl]-7H-purine-2-carboxylic acid]  143 nM
6. C[C@@H](Nc1nc(C(=O)O)nc2nc(N3CCOC[C@@H]3c3ccccc3)n(Cc3ccc(C(F)(F)F)cc3)c12)C1CCC1 [Example 9.51, 6-{[(1R)-1-cyclobutylethyl]amino}-8-[(3S)-3-phenylmorpholin-4-yl]-7-[4-(trifluoromethyl)benzyl]-7H-purine-2-carboxylic acid]  120 nM
7. COCC1CN(c2nc3nc(C(=O)O)nc(N[C@H](C)C4CCC4)c3n2Cc2ccc(C(F)(F)F)cc2)CCO1 (stereo partly drawn) [Example 9.24, 6-{[(1R)-1-cyclobutylethyl]amino}-8-[2-(methoxymethyl)morpholin-4-yl]-7-[4-(trifluoromethyl)benzyl]-7H-purine-2-carboxylic acid]  72.9 nM
8. CC1CN(c2nc3nc(C(=O)O)nc(N[C@H](C)C4CCC4)c3n2Cc2ccc(C(F)(F)F)cc2)CCO1 (stereo partly drawn) [Example 9.20, 6-{[(1R)-1-cyclobutylethyl]amino}-8-(2-methylmorpholin-4-yl)-7-[4-(trifluoromethyl)benzyl]-7H-purine-2-carboxylic acid]  63.1 nM
9. C#CCC1CN(c2nc3nc(C(=O)O)nc(N[C@H](C)C4CCC4)c3n2Cc2ccc(C(F)(F)F)cc2)CCO1 (stereo partly drawn) [Example 9.26, 6-{[(1R)-1-cyclobutylethyl]amino}-8-(2-prop-2-yn-1-ylmorpholin-4-yl)-7-[4-(trifluoromethyl)benzyl]-7H-purine-2-carboxylic acid]  34.2 nM
10. C[C@@H](Nc1nc(C(=O)O)nc2nc(N3CCOC(C)(C)C3)n(Cc3ccc(C(F)(F)F)cc3)c12)C1CCC1 [Example 9.18, 6-{[(1R)-1-cyclobutylethyl]amino}-8-(2,2-dimethylmorpholin-4-yl)-7-[4-(trifluoromethyl)benzyl]-7H-purine-2-carboxylic acid]  32.7 nM
11. C[C@@H](Nc1nc(C(=O)O)nc2nc(N3CCCC(c4ccccc4)C3)n(Cc3ccc(C(F)(F)F)cc3)c12)C1CCC1 (stereo partly drawn) [Example 9.41, 6-{[(1R)-1-cyclobutylethyl]amino}-8-(3-phenylpiperidin-1-yl)-7-[4-(trifluoromethyl)benzyl]-7H-purine-2-carboxylic acid]  27.3 nM
12. CC(C)C1CCCN(c2nc3nc(C(=O)O)nc(N[C@H](C)C4CCC4)c3n2Cc2ccc(C(F)(F)F)cc2)C1 (stereo partly drawn) [Example 9.46, 6-{[(1R)-1-cyclobutylethyl]amino}-8-[3-(1-methylethyl)piperidin-1-yl]-7-[4-(trifluoromethyl)benzyl]-7H-purine-2-carboxylic acid]  26.2 nM
13. C[C@@H](Nc1nc(C(=O)O)nc2nc(N3CCOC(C(F)(F)F)C3)n(Cc3ccc(C(F)(F)F)cc3)c12)C1CCC1 (stereo partly drawn) [Example 9.23, 6-{[(1R)-1-cyclobutylethyl]amino}-7-[4-(trifluoromethyl)benzyl]-8-[2-(trifluoromethyl)morpholin-4-yl]-7H-purine-2-carboxylic acid]  25.2 nM
14. C[C@@H](Nc1nc(C(=O)O)nc2nc(N3C[C@H]4C[C@@H]3CO4)n(Cc3ccc(C(F)(F)F)cc3)c12)C1CCC1 [Example 9.27, 6-{[(1R)-1-cyclobutylethyl]amino}-8-[(1R,4R)-2-oxa-5-azabicyclo [2.2.1]hept-5-yl]-7-[4-(trifluoromethyl)benzyl]-7H-purine-2-carboxylic acid]  23.7 nM
15. CCCN(c1nc2nc(C(=O)O)nc(N[C@H](C)C3CCC3)c2n1Cc1ccc(C(F)(F)F)cc1)[C@@H](C)c1ccccc1 [Example 9.49, 6-{[(1R)-1-cyclobutylethyl]amino}-8-{[(1S)-1-phenylethyl] (propyl)amino}-7-[4-(trifluoromethyl)benzyl]-7H-purine-2-carboxylic acid]  22.8 nM
16. C[C@@H](Nc1nc(C(=O)O)nc2nc(N(C)[C@@H](C)c3ccccc3)n(Cc3ccc(C(F)(F)F)cc3)c12)C1CCC1 [Example 9.37, 6-{[(1R)-1-cyclobutylethyl]amino}-8-{methyl[(1S)-1-phenylethyl]amino}-7-[4-(trifluoromethyl)benzyl]-7H-purine-2-carboxylic acid]  21.6 nM
17. C[C@@H](Nc1nc(C(=O)O)nc2nc(N3CCOC4(CCCC4)C3)n(Cc3ccc(C(F)(F)F)cc3)c12)C1CCC1 [Example 9.25, 6-{[(1R)-1-cyclobutylethyl]amino}-8-(6-oxa-9-azaspiro[4.5]dec-9-yl)-7-[4-(trifluoromethyl)benzyl]-7H-purine-2-carboxylic acid]  19.4 nM
18. C[C@@H](Nc1nc(C(=O)O)nc2nc(N3CCOC[C@@H]3C)n(Cc3ccc(C(F)(F)F)cc3)c12)C1CCC1 [Example 9.32, 6-{[(1R)-1-cyclobutylethyl]amino}-8-[(3S)-3-methylmorpholin-4-yl]-7-[4-(trifluoromethyl)benzyl]-7H-purine-2-carboxylic acid]  15.2 nM
19. C[C@@H](Nc1nc(C(=O)O)nc2nc(N3CC(C)(C)OC(C)(C)C3)n(Cc3ccc(C(F)(F)F)cc3)c12)C1CCC1 [Example 9.19, 6-{[(1R)-1-cyclobutylethyl]amino}-8-(2,2,6,6-tetramethylmorpholin-4-yl)-7-[4-(trifluoromethyl)benzyl]-7H-purine-2-carboxylic acid]  12.4 nM
20. C[C@@H](Nc1nc(C(=O)O)nc2nc(N3CCOC(c4ccccc4)C3)n(Cc3ccc(C(F)(F)F)cc3)c12)C1CCC1 (stereo partly drawn) [Example 9.22, 6-{[(1R)-1-cyclobutylethyl]amino}-8-(2-phenylmorpholin-4-yl)-7-[4-(trifluoromethyl)benzyl]-7H-purine-2-carboxylic acid]  12.4 nM
21. CC1CCCN(c2nc3nc(C(=O)O)nc(N[C@H](C)C4CCC4)c3n2Cc2ccc(C(F)(F)F)cc2)C1 (stereo partly drawn) [Example 9.40, 6-{[(1R)-1-cyclobutylethyl]amino}-8-(3-methylpiperidin-1-yl)-7-[4-(trifluoromethyl)benzyl]-7H-purine-2-carboxylic acid]  12.2 nM
22. C[C@@H](Nc1nc(C(=O)O)nc2nc(Nc3ccccc3)n(Cc3ccc(C(F)(F)F)cc3)c12)C1CCC1 [Example 9.21, 6-{[(1R)-1-cyclobutylethyl]amino} -8-(phenylamino)-7-[4-(trifluoromethyl)benzyl]-7H-purine-2-carboxylic acid]  9.44 nM
23. C[C@@H](Nc1nc(C(=O)O)nc2nc(N3CCCC(C)(C)C3)n(Cc3ccc(C(F)(F)F)cc3)c12)C1CCC1 [Example 9.45, 6-{[(1R)-1-cyclobutylethyl]amino}-8-(3,3-dimethylpiperidin-1-yl)-7-[4-(trifluoromethyl)benzyl]-7H-purine-2-carboxylic acid]  7.57 nM
24. C[C@@H]1COCCN1c1nc2nc(C(=O)O)nc(N[C@H](C)C3CCC3)c2n1Cc1ccc(C(F)(F)F)cc1 [Example 9.35]  7.17 nM
25. C[C@@H](Nc1nc(C(=O)O)nc2nc(N3CCCCC3c3ccccc3)n(Cc3ccc(C(F)(F)F)cc3)c12)C1CCC1 (stereo partly drawn) [Example 9.44, 6-{[(1R)-1-cyclobutylethyl]amino}-8-(2-phenylpiperidin-1-yl)-7-[4-(trifluoromethyl)benzyl]-7H-purine-2-carboxylic acid]  3.67 nM
26. CC(Nc1nc2nc(C(=O)O)nc(N[C@H](C)C3CCC3)c2n1Cc1ccc(C(F)(F)F)cc1)c1cccnc1 (stereo partly drawn) [Example 9.30, 6-{[(1R)-1-cyclobutylethyl]amino}-8-[(1-pyridin-3-ylethyl)amino]-7-[4-(trifluoromethyl)benzyl]-7H-purine-2-carboxylic acid]  3.05 nM
27. C[C@@H](Nc1nc(C(=O)O)nc2nc(N3CCOC[C@H]3c3ccccc3)n(Cc3ccc(C(F)(F)F)cc3)c12)C1CCC1 [Example 9.50, 6-{[(1R)-1-cyclobutylethyl]amino}-8-[(3R)-3-phenylmorpholin-4-yl]-7-[4-(trifluoromethyl)benzyl]-7H-purine-2-carboxylic acid]  1.76 nM
28. CC[C@H](Nc1nc2nc(C(=O)O)nc(N[C@H](C)C3CCC3)c2n1Cc1ccc(C(F)(F)F)cc1)c1ccccc1 [Example 9.36, 6-{[(1R)-1-cyclobutylethyl]amino}-8-{[(1S)-1-phenylpropyl]amino}-7-[4-(trifluoromethyl)benzyl]-7H-purine-2-carboxylic acid]  0.862 nM
29. C[C@H](Nc1nc2nc(C(=O)O)nc(N[C@H](C)C3CCC3)c2n1Cc1ccc(C(F)(F)F)cc1)c1cccc(F)c1 [Example 9.39, 6-{[(1R)-1-cyclobutylethyl]amino}-8-{[(1S)-1-(3-fluorophenyl)ethyl]amino}-7-[4-(trifluoromethyl)benzyl]-7H-purine-2-carboxylic acid]  0.753 nM
30. CC(Nc1nc2nc(C(=O)O)nc(N[C@H](C)C3CCC3)c2n1Cc1ccc(C(F)(F)F)cc1)c1ccccn1 (stereo partly drawn) [Example 9.31, 6-{[(1R)-1-cyclobutylethyl]amino}-8-[(1-pyridin-2-ylethyl)amino]-7-[4-(trifluoromethyl)benzyl]-7H-purine-2-carboxylic acid]  0.526 nM
